Data from patent publication US12605354B2, “Azelaic acid esters in the treatment or prevention of dyslipidemia and associated conditions” (NEW FRONTIER LABS, LLC, priority 2020, dated 2026).
Marks after values point to notes of the source that are not given here.

Columns and labels:
[1] = system: subject, with diet induced insulin resistance and diabetes; experiment: Example 2: fasting blood lipids after buccal or gastric delivery of DEA; type: in vivo, human; conditions: for TC, triglyceride, and Calc LDL levels and TC/HDL ratio: all tested dosages vs 0 mg/kg
Description: Described in this example is an evaluation of the effects of alkyl azelates, such as DEA, on certain markers of insulin resistance and dyslipidemia, namely, blood plasma glucose, insulin levels and/or lipid levels, when administered either for buccal delivery or for gastric delivery in a subject, with diet induced insulin resistance and diabetes with a BMI of approximately 27.
Diethyl azelate was synthesized from azelaic acid and ethyl alcohol sing the standard acid-catalyzed esterification followed by fractional distillation to produce DEA to 99% purity as determined by chromatography-mass spectrometry (GC-MS). The 99% distilled DEA distillation product was administered in unformulated, unencapsulated, etc. form (i.e., “as is”) for buccal delivery as indicated below.
For gastric delivery, the 99% DEA distillation product was placed in a hard gelatin capsule, size 00 (PureCaps USA, Philmont, NY) and administered for gastric delivery by swallowing with a drink of water.
Fasting blood levels of cholesterol, high density lipoprotein (HDL) cholesterol, and triglycerides were measured using Lipid Panel PTS test strips and CardioChek P-A test system (Polymer Technology Systems, Inc., Indianapolis, IN) according to the manufacturer's instructions.

[2] = system: overweight to obese males; experiment: 21-day oral DEA study: blood lipid levels and lipid ratios; type: in vivo, human; conditions: for LDL/triglycerides / LDL/HDL / Triglycerides/HDL / Non-cholesterol HDL/HDL / Cholesterol, total/HDL / HDL cholesterol / LDL cholesterol / Non-cholesterol HDL / Triglycerides / Cholesterol, total: D21 post-treatment, 21 daily oral doses of 1 mg/kg, mean; for decrease of LDL/HDL: p=0.02; for Cholesterol/HDL, decrease / LDL/HDL, decrease: significant effect
Description: Seventeen subjects were recruited by sampling a large population at risk for T2D (according to convenience sample; a statistical method of drawing representative data) to measure the changes in glucose, lipid and insulin measurements after an OGTT after the subjects had been treated for 21 days.
The subjects were overweight to obese males with body mass indices (BMIs) ranging from 27.2 to 43.6 kg/m^2, glycated hemoglobin A1c (HbA1c) of 5.0-6.2% and insulin levels of 8.8-52 μU/mL. The study was conducted by Clinical Trials of Texas, Inc. in San Antonio, TX. The cohort represented a population at risk for the development of T2D. The study was restricted to male participants to control for the variability of insulin sensitivity associated with the menstrual cycle. The subjects received 21 daily oral doses (“q1d”) of 1 mg/kg DEA. An OGTT, in which 75 grams of glucose in a total volume of 300 mL was administered orally to subjects, was performed on Day 0 and again on Day 21 and glucose measurements performed at −30, −5 and 0 min, insulin measurements at −30 and 0 min, and both glucose measurements and insulin measurements at 30, 60, 90, 120 and 180 minutes, where “0 min” is the time at which the glucose solution was administered. The 180-minute time point was selected to gain an early insight into the possible signal of drug action. Blood lipid levels (triglycerides, cholesterol, HDL, non-cholesterol HDL and LDL) were measured before the onset of treatment on Day 0 and again on Day 21. The error of the assays was <5% [36].
The results of the various marker measurements at Day 0 and Day 21 were compared using both the paired Students T-test and the Wilcoxon signed rank test. The results of both calculations are provided; the p-value from the paired Student T-test first, followed by the p-value from the Wilcoxon signed rank test. Generalized Estimating Equations and bootstrapping were used to verify the results generated with other methods. Fasting glucose was calculated as the average of the −30, −5, and 0-minute measurements and fasting insulin was calculated as the average of the −30- and 0-minute measurements. Spearman's correlation coefficient was calculated for the relationship between A1c and pre-treatment fasting plasma glucose versus post-treatment fasting plasma glucose. Area under the curve (AUC) was calculated over the 180-minute time span of the OGTT. All analyses were performed using the open language engine R 3.4.4. Statistical significance was at the α=0.05 level.

[3] = buccal delivery, 0.5, 1, 2, 4 mg/kg vs 0 mg/kg, FIG. 8, greatest lowering at 0.5 mg/kg

## CCOC(=O)CCCCCCCC(=O)OCC [DEA, diethyl azelate]
[1]; FIG. 17, T test
  improvement in total cholesterol and TC/HDL ratio, buccal relative to gastric delivery: statistically significant greater improvement
[1]; buccal delivery, 0.5, 1, 2, 4 mg/kg vs 0 mg/kg, FIG. 8
  HDL levels: increased at all DEA doses tested
[1]; [3]
  Triglycerides: lowered
  calculated LDL: lowered
  total cholesterol: lowered
[1]; buccal delivery, all dosages vs 0 mg/kg, FIG. 15
  HDL levels: elevated (i.e., improved)
[1]; buccal delivery, all tested amounts 0.5-4 mg/kg vs no DEA, FIG. 9, lowered the most with 0.5 mg/kg
  TC/HDL ratio: lowered (i.e., improved) TC/HDL ratio
[1]; buccal delivery, FIG. 15, more pronounced at 1 mg/kg
  TC, triglyceride, and Calc LDL levels and TC/HDL ratio: lowered (i.e., improved)
[1]; gastric delivery, all dosages vs 0 mg/kg, FIG. 15
  HDL levels: elevated (i.e., improved)
[1]; gastric delivery, FIG. 15, more pronounced at 0.25 mg/kg
  TC, triglyceride, and Calc LDL levels and TC/HDL ratio: lowered (i.e., improved)
[2]; 21-day study, group not stated
  HDL, increase: 8.7% increase
[2]; All (n = 17), D0 0.998
  LDL/triglycerides: 0.893
[2]; All (n = 17), D0 3.442, P < 0.05
  LDL/HDL: 3.201*
[2]; All (n = 17), D0 3.761
  Triglycerides/HDL: 3.907
[2]; All (n = 17), D0 3.799, P < 0.05
  Non-cholesterol HDL/HDL: 3.549*
[2]; All (n = 17), D0 4.806, P < 0.05
  Cholesterol, total/HDL: 4.553*
[2]; All (n = 17), D0 32.765
  HDL cholesterol: 34.412 mg/dL
[2]; All (n = 17), D0 93.765
  LDL cholesterol: 89.765 mg/dL
[2]; All (n = 17), D0 117.412
  Non-cholesterol HDL: 114.471 mg/dL
[2]; All (n = 17), D0 118.588
  Triglycerides: 124 mg/dL
[2]; All (n = 17), D0 150.118
  Cholesterol, total: 148.882 mg/dL
[2]; FPG <100 mg/dL (n = 8), D0 0.861
  LDL/triglycerides: 0.887
[2]; FPG <100 mg/dL (n = 8), D0 3.082
  LDL/HDL: 2.892
[2]; FPG <100 mg/dL (n = 8), D0 3.309
  Non-cholesterol HDL/HDL: 3.098
[2]; FPG <100 mg/dL (n = 8), D0 3.693
  Triglycerides/HDL: 3.521
[2]; FPG <100 mg/dL (n = 8), D0 4.311
  Cholesterol, total/HDL: 4.089
[2]; FPG <100 mg/dL (n = 8), D0 31.25
  HDL cholesterol: 31.5 mg/dL
[2]; FPG <100 mg/dL (n = 8), D0 101
  LDL cholesterol: 90.75 mg/dL
[2]; FPG <100 mg/dL (n = 8), D0 111.778
  Non-cholesterol HDL: 114.333 mg/dL
[2]; FPG <100 mg/dL (n = 8), D0 122.889
  Triglycerides: 127.667 mg/dL
[2]; FPG <100 mg/dL (n = 8), D0 154.875
  Cholesterol, total: 146.125 mg/dL
[2]; FPG >100 mg/dL (n = 9), D0 1.152
  LDL/triglycerides: 0.9
[2]; FPG >100 mg/dL (n = 9), D0 3.837
  Triglycerides/HDL: 4.342
[2]; FPG >100 mg/dL (n = 9), D0 3.847
  LDL/HDL: 3.549
[2]; FPG >100 mg/dL (n = 9), D0 4.349
  Non-cholesterol HDL/HDL: 4.057
[2]; FPG >100 mg/dL (n = 9), D0 5.362
  Cholesterol, total/HDL: 5.075
[2]; FPG >100 mg/dL (n = 9), D0 34.111
  HDL cholesterol: 37 mg/dL
[2]; FPG >100 mg/dL (n = 9), D0 105
  LDL cholesterol: 103.444 mg/dL
[2]; FPG >100 mg/dL (n = 9), D0 113.75
  Triglycerides: 119.875 mg/dL
[2]; FPG >100 mg/dL (n = 9), D0 123.75
  Non-cholesterol HDL: 114.625 mg/dL
[2]; FPG >100 mg/dL (n = 9), D0 145.889
  Cholesterol, total: 151.333 mg/dL
[2]; High A1c (n = 9), D0 0.954
  LDL/triglycerides: 0.972
[2]; High A1c (n = 9), D0 3.173, P < 0.01
  LDL/HDL: 2.862**
[2]; High A1c (n = 9), D0 3.446
  Non-cholesterol HDL/HDL: 3.108
[2]; High A1c (n = 9), D0 3.481
  Triglycerides/HDL: 3.096
[2]; High A1c (n = 9), D0 4.456, P < 0.05
  Cholesterol, total/HDL: 4.1*
[2]; High A1c (n = 9), D0 37.889
  HDL cholesterol: 41.222 mg/dL
[2]; High A1c (n = 9), D0 105
  LDL cholesterol: 103.444 mg/dL
[2]; High A1c (n = 9), D0 129
  Triglycerides: 125.222 mg/dL
[2]; High A1c (n = 9), D0 130.667
  Non-cholesterol HDL: 128.444 mg/dL
[2]; High A1c (n = 9), D0 168.444
  Cholesterol, total: 169.667 mg/dL
[2]; Low A1c (n = 8), D0 1.048
  LDL/triglycerides: 0.804
[2]; Low A1c (n = 8), D0 3.744
  LDL/HDL: 3.582
[2]; Low A1c (n = 8), D0 4.076
  Triglycerides/HDL: 4.82
[2]; Low A1c (n = 8), D0 4.196
  Non-cholesterol HDL/HDL: 4.046
[2]; Low A1c (n = 8), D0 5.2
  Cholesterol, total/HDL: 5.062
[2]; Low A1c (n = 8), D0 27
  HDL cholesterol: 26.75 mg/dL
[2]; Low A1c (n = 8), D0 81.125
  LDL cholesterol: 74.375 mg/dL
[2]; Low A1c (n = 8), D0 102.5
  Non-cholesterol HDL: 98.75 mg/dL
[2]; Low A1c (n = 8), D0 106.875
  Triglycerides: 122.625 mg/dL
[2]; Low A1c (n = 8), D0 129.5
  Cholesterol, total: 125.5 mg/dL
[2]; all
  LDL, decrease: 4.3%
  Cholesterol/HDL, decrease: 5.4%
  LDL/HDL, decrease: 6.5%
[2]; all 17 subjects, p=0.011
  decrease of LDL/HDL: 6.46%
[2]; all subjects
  HDL and non-cholesterol HDL: non-significantly affected by the treatment
[2]; entire cohort
  effect on total cholesterol, LDL, HDL, non-cholesterol HDL, and triglycerides considered singly: did not exert statistically significant effects on any endpoint considered singly
[2]; entire cohort, p=0.025, p=0.041
  decrease of the ratio of total cholesterol/HDL: 5.36%
[2]; entire cohort, p=0.025, p=0.057
  decrease of non-cholesterol HDL/HDL ratio: 6.6%
[2]; high A1c
  LDL, decrease: 2%
  Cholesterol/HDL, decrease: 8%
  LDL/HDL, decrease: 9.8%
[2]; high A1c group
  decrease of median total cholesterol: 1 mg/dL
  decrease of the ratio of triglycerides/HDL: 11%
[2]; high A1c group, from 3.4
  ratio of triglycerides/HDL post-treatment: 3.0
[2]; high A1c group, less so in the low A1c group, normal <100 mg/dL
  LDL trend: decreasing trend toward normal values
[2]; high A1c group, p=0.017, p=0.068
  decrease of the ratio of total cholesterol/HDL: 7.99%
[2]; high A1c group, p=0.025, p=0.074
  decrease of non-cholesterol HDL/HDL ratio: 9.8%
[2]; high A1c subjects, 21-day study (3 weeks), p=0.008
  decrease of LDL/HDL: 9.8%
[2]; including two high A1c subjects with abnormal triglycerides >150 before treatment
  elevated triglycerides post-treatment: decreased post-treatment to normal levels in 8 subjects
[2]; low A1c
  increase of the ratio of triglycerides/HDL: 15%
[2]; low A1c group
  increase of median total cholesterol: 9 mg/dL
[2]; low A1c, from 3.9
  ratio of triglycerides/HDL post-treatment: 4.6
[2]; two subjects in the high A1c group
  abnormal total cholesterol (>200 mg/dL) post-treatment: decreased or returned to normal levels
